Assay results reported in article PMC4862170, “Genomic screens identify a new phytobacterial microbe-associated molecular pattern and the cognate Arabidopsis receptor-like kinase that mediates its immune elicitation” (Genome Biology, 2016).
Where no end group is shown, it is not given here.

Target: T1, XPS1 ectodomain (Arabidopsis thaliana, UniProt Q9SD62)
T1 construct: The extracellular domain of XPS1 (amino acids 36-650) was cloned by ligation independent cloning; made in house; host or cells: Hi5 insect cells, baculovirus (pMelBac B)
T1 sequence (Q9SD62 36-650): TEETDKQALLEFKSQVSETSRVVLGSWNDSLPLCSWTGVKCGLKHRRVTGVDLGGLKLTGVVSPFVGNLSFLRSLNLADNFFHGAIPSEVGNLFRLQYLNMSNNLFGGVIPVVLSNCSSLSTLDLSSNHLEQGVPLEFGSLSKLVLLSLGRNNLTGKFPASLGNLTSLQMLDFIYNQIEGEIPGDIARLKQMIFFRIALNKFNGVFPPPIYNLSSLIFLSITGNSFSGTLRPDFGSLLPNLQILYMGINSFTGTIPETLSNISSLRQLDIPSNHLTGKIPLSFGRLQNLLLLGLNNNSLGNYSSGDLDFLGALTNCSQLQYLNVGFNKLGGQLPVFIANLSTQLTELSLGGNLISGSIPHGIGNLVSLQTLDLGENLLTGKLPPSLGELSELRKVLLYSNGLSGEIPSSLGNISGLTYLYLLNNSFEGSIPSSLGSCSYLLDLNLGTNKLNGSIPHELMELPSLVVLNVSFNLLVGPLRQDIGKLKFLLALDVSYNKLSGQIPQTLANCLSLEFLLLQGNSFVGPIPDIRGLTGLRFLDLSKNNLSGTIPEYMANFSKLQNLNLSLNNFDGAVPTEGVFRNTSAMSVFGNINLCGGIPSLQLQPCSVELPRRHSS
Assay: biochemical
Assay type: binding
Method: For XPS1 expression in Hi5 cells, the ectodomain of XPS1 (36-650) was inserted into the baculovirus transfer vector pMelBac B (Invitrogen). The extracellular domain of XPS1 (amino acids 36-650) was cloned by ligation independent cloning between the existing Honey bee melettin signal sequence and the C-terminal Strep II-9x His tag. […] The StrepII-9x His fused XPS1 ectodomain was produced by secreted expression in baculovirus-infected insect cells, harvested 72 h post infection and purified by Ni-NTA affinity chromatography (Qiagen). The samples were processed twice with a Superdex 200 16/60 column (GE Healthcare) pre-equilibrated with 10 mM Bis-Tris pH 6.0, 150 mM NaCl. Protein purity was checked by SDS-PAGE.
The XPS1 ectodomain was kept at a constant concentration (0.5 μM) in a buffer containing 10 mM Bis-Tris pH6, 150 mM NaCl, 5 % glycerol and 0.01 % Tween, whereas varying peptide concentrations were added. Approximately 4–6 μL of each sample was loaded in a fused silica capillary (NanoTemper Technologies). Measurements were performed at room temperature in a Monolith NT.label free instrument at a constant LED power of 20 and MST power of 60 %. Measurements were performed repeatedly on two independent protein preparations to ensure reproducibility. […] Curve fitting was performed by using the NT affinity analysis software from Nanotemper.

Row | Sequence | Apparent EC50 range of XPS1 for peptide | EC50 [µM] | Overall KD of XPS1 binding | EC50 of binding to XPS1 ECD (additional replicate (Figure S7), XPS1 ECD 0.5 μM, pH6, MST power 60 %, NT affinity analysis) | Kd (read-out: KD of binding to XPS1 ECD) [µM]
1 | LIPEGKVAVTTTQAATERKPLEQPR [xup25] | in the high nM range | 0.381 | not able to calculate an accurate overall KD |  | 
2 | QRLSTGSRINSAKDDAAGLQIA [flg22, reference compound] |  |  |  | could not be fitted using the EC50 fit | 13.1
